Data as given in publication PMC6452851, “Properties of a cryptic lysyl oxidase from haloarchaeon Haloterrigena turkmenica” (PeerJ, 2019).

Legend:
[1] = target: T1, HTU-LOX (HTU-QV variant) (Haloterrigena turkmenica, UniProt D2RU96); assay: Amplex red / horseradish peroxidase fluorometric H2O2 release assay; type: biochemical; conditions: inhibitor, bought as fumarate salt; 0.1 mM used as negative control; 0.1 M borate pH 8.3, 37 °C
T1 construct: gene Htur_0264; delta1-91, catalytic domain, N-terminus Gln92-Val; His-tag kept (pQE-30); full-length protein 308 residues, 33,829 Da

[2] = target: T2, HTU-LOX (HTU-AA variant) (Haloterrigena turkmenica, UniProt D2RU96); assay: as above; type: biochemical; conditions: 0.1 M borate pH 8.3, 37 °C; Cu2+-refolded enzyme
T2 construct: gene Htur_0264; delta1-34, signal peptide removed, N-terminus Ala35-Ala; His-tag kept (pQE-30); full-length protein 308 residues
T2 sequence (D2RU96 35-296): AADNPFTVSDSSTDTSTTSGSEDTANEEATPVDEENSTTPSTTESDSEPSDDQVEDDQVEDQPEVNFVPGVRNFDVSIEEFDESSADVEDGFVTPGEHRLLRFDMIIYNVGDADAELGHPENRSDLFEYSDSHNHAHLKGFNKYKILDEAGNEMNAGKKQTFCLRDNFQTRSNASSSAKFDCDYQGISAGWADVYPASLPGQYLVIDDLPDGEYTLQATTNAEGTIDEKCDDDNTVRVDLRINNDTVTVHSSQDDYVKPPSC

Structure (SMILES)	Amplex red / horseradish peroxidase fluorometric H2O2 release assay [1]	Amplex red / horseradish peroxidase fluorometric H2O2 release assay [2]
N#CCCN [3-aminopropionitrile]	HTU-LOX demonstrated good sensitivity to the classical inhibitor of all LOXes—3-aminopropionitrile (BAPN)	
NCCc1c[nH]cn1 [histamine]		Refolded proteins HTU-QV and HTU-AA exhibit activity against a wide variety of primary amines
